In paper PMC12715762, “Discovery of VU6052254: A Novel, Potent M1 Positive Allosteric Modulator” (ACS Chemical Neuroscience, 2025):
Substitutions are numbered along the chain they refer to. ≈ marks a conversion by molar mass, not a printed value. Where “and” joins values, the source holds several entries; their conditions need not be identical. Equal entries are not always repeated. Where two headings read alike, the source gives them in different places.

Key:
[1] = kinetic / aqueous solubility; assay type: physicochemical; conditions: for solubility kinetic: aqueous medium, kinetic from dmso stock
CYP 1A2 = CYP 1A2 (Homo sapiens, UniProt P05177); assay: CYP450 inhibition; assay type: in vitro ADME
hM2-5 = assay: muscarinic selectivity calcium mobilization (human M2-5); assay type: cell-based
Method: (§1) Procedures for Biological Experiments
(§2) Calcium mobilization assays:
All functional cell-based assays were performed in stable Chinese Hamster Ovary (CHO) cell lines constitutively expressing human M5 or human M1 receptors. For full muscarinic selectivity, CHO cells expressing human M3, human M2 plus Gqi5 or human M4 plus Gqi5 were used. Cells were plated at 15,000 cells per 20 µL per well in black 384-well, TC-treated, clear-bottomed plates (Greiner) in Ham’s F12 medium supplemented with 10% FBS and 20 mM HEPES. Cells were incubated overnight at 37 °C under 5% CO2. […] The compound plate, cell plate, and plates containing EC20 and EC80 acetylcholine concentrations were placed in a Hamamatsu FDSS 6000 or 7000 kinetic imaging plate reader equipped to measure Ex480/Em540 fluorescence. […] After 2 seconds of collecting baseline fluorescence, 20 µL of the compound solutions were added to the cell plate. […] The fluorescence signal was collected for a total of 300 seconds. […] Data were imported and analyzed in Dotmatics Informatics software. by normalizing all data in the individual kinetic traces to the initial fluorescence read. The magnitude of each agonist addition was then determined and normalized to the average maximum response. […] The IC50 determined using the EC80 of acetylcholine is the value reported. […]

human M1 [2] = molecular target: T1, human M1 (Homo sapiens, UniProt P11229); assay: M1 PAM calcium mobilization assay (human); assay type: cell-based; conditions: for hM1 PAM AChmax (%): human M1, % ACh max, n = 9
T1 sequence (P11229 1-460): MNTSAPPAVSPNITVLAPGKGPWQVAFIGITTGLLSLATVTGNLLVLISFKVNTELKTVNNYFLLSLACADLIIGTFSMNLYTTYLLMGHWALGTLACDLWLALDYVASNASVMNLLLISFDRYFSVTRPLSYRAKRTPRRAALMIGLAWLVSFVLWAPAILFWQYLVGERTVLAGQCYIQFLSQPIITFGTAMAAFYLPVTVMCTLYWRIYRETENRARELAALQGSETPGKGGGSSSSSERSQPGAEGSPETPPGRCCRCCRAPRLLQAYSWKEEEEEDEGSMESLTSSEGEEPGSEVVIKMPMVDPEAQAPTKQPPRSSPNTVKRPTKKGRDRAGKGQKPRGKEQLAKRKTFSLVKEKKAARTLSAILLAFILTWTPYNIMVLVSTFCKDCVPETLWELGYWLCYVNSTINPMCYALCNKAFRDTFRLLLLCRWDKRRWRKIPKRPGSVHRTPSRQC
Method: as §1, §2
(§3) All functional cell-based assays were performed in stable Chinese Hamster Ovary (CHO) cell lines constitutively expressing human M5 or human M1 receptors. For full muscarinic selectivity, CHO cells expressing human M3, human M2 plus Gqi5 or human M4 plus Gqi5 were used. Cells were plated at 15,000 cells per 20 µL per well in black 384-well, TC-treated, clear-bottomed plates (Greiner) in Ham’s F12 medium supplemented with 10% FBS and 20 mM HEPES. Cells were incubated overnight at 37 °C under 5% CO2. The following day, the medium was removed and replaced with 1.2 µM Fluo-4 AM (Invitrogen) in assay buffer (Hank’s Balanced Salt Solution supplemented with 20 mM HEPES and 2.5 mM Probenecid, pH 7.4) and the cells were incubated for 50 minutes at 37 °C under 5% CO2. Dye was then removed and replaced with 20 µL of fresh assay buffer. Test compounds at a 10 mM concentration in DMSO were serially diluted in DMSO (either 1:3 or 1:5 dilution) to create a 10-point concentration series. The DMSO solutions were then diluted in assay buffer resulting in compound solutions at 2-times the final assay concentration with the highest assay concentration of 30 µM. The compound plate, cell plate, and plates containing EC20 and EC80 acetylcholine concentrations were placed in a Hamamatsu FDSS 6000 or 7000 kinetic imaging plate reader equipped to measure Ex480/Em540 fluorescence. Data were collected at 1 frame per second. After 2 seconds of collecting baseline fluorescence, 20 µL of the compound solutions were added to the cell plate. This was followed by the addition of an EC20 concentration of acetylcholine at 142 seconds. […] The fluorescence signal was collected for a total of 300 seconds. […] Data were imported and analyzed in Dotmatics Informatics software. by normalizing all data in the individual kinetic traces to the initial fluorescence read. The magnitude of each agonist addition was then determined and normalized to the average maximum response. […] The IC50 determined using the EC80 of acetylcholine is the value reported. […]

human M1 [3] = molecular target: T1, human M1; assay: M1 agonist calcium mobilization assay (human); assay type: cell-based; conditions: for hM1 Agonist AChmax (%): human M1, % ACh max, n = 9
Method: as §1, §2, §3

rat M1 = molecular target: T2, rat M1 (Rattus norvegicus, UniProt P08482); assay: M1 PAM calcium mobilization assay (rat); assay type: cell-based; conditions: for rM1 PAM AChmax (%): rat M1, % ACh max, n = 5; for EC50: rat M1, n = 5, read-out: rM1 PAM EC50
T2 construct: expressed in transfected cells
T2 sequence (P08482 1-460): T1 sequence (P11229 1-460) with A5V, T254S, P309S, R320K, A337G, I413V

[4] = pH 2.2, pH 2.2, aqueous buffer, read-out: Kinetic solubility (pH = 2.2)
[5] = pH 6.8, pH 6.8, aqueous buffer, read-out: Kinetic solubility (pH = 6.8)

Chain of CYP 1A2 (P05177 whole entry): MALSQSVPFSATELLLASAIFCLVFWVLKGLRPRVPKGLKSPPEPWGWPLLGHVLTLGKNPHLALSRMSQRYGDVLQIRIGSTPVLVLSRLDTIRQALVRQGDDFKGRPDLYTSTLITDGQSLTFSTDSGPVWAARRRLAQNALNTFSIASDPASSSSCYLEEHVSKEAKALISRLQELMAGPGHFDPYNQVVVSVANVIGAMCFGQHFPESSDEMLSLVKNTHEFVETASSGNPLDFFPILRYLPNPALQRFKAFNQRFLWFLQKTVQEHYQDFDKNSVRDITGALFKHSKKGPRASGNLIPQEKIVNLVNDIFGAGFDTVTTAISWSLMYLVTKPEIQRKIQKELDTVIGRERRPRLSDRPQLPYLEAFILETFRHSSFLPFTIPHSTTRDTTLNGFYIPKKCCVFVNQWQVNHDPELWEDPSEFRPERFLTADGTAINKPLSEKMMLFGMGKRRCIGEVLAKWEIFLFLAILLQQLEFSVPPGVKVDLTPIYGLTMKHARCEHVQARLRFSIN

| Structure (SMILES) | solubility kinetic [1, 4] | solubility kinetic [1, 5] | aqueous solubility ([1]; result in words) | IC50 (CYP 1A2) | EC50 (hM2-5) | hM1 PAM AChmax (%) (human M1 [2]) | hM1 Agonist AChmax (%) (human M1 [3]) | rM1 PAM AChmax (%) (rat M1) | EC50 (rat M1) | EC50 (human M1 [2]; human M1, n = 9, read-out: hM1 PAM EC50) | EC50 (human M1 [3]; human M1, n = 9, read-out: hM1 Agonist EC50) |
| --- | --- | --- | --- | --- | --- | --- | --- | --- | --- | --- | --- |
| Cn1cc2c(-c3cc(F)c(CN4Cc5ncccc5C4=O)c(F)c3)cccc2n1 [compound 1, reference compound] | 80.1 µM (≈ 31.3 µg/mL) | 9.75 µM (≈ 3.81 µg/mL) | low aqueous solubility | 14 µM | > 30 µM | 71% | 20% | 81% | 0.398 µM | – | – |
| Cn1cc2c(-c3cc(F)c(CN4Cc5ncccc5C4=O)c(F)c3)ccc(C(C)(C)O)c2n1 [compound 7] | 81.5 µM (≈ 36.6 µg/mL) | 67.8 µM (≈ 30.4 µg/mL) | – | > 30 µM | > 30 µM | 78% and 80% | 22% | 94% | 0.078 µM | 0.059 µM | 3.64 µM |
